# Like-named read-outs stand apart in the source and are kept apart here.
# What was measured:
# M. tuberculosis H37Rv-LP = system: M. tuberculosis H37Rv-LP; parameters: method as in PMID 35262374, PMID 29035551; conditions: given in Figure 1A; cited from earlier work
# [1] = system: M. tuberculosis H37Rv (Erdman); parameters: method as in PMID 31511370; conditions: given in Figure 1A; cited from earlier work
# [2] = system: M. tuberculosis qcrCAB (wt); parameters: method as in PMID 31511370; conditions: given in Figure 1A; cited from earlier work
# in vitro [3] = conditions: human
# [4] = system: M. tuberculosis H37Rv-LP (ATCC 25618); experiment: microbe, parasite or virus in culture; assay type: cell-based; conditions: concentration inhibiting 90% of growth, 5 days, read-out: MIC parental wild-type strain H37Rv-LP
# [5] = system: M. tuberculosis H37Rv (ATCC 27294); experiment: MIC by resazurin reduction microplate assay (REMA); assay type: cell-based; conditions: Mycobacterium tuberculosis, converted from μg/mL to μM
# in vitro [6] = conditions: African green monkey
# in vitro [7] = conditions: African green monkey; remark: listed apart in the source
# in vitro [8] = conditions: human; remark: listed apart in the source
# in vitro [9] = conditions: human; remark: listed apart in the source
# [10] = Microsomal stability, mouse liver microsomes (MLM); assay type: in vitro ADME; conditions: male, BALB/c, pH 7.4; for half-life at 6 μM: mouse liver microsomes, read-out: MLM t1/2
# Protocol: (§1) 1.5. Microsomal stability
# (§2) Test compound (6 μM) was incubated at 37 °C with male BALB/c mouse liver microsomes or mixed gender human liver microsomes (Xenotech LLC; 0.5 mg /mL, […] potassium phosphate buﬀer, pH 7.4) and the reaclon started with addilon of excess NADPH (2 mM, pH 7.4). Samples (35 µL) were removed at lme 0, 5, 10, 20, 30, and 60 min and mixed with 35 µL of acetonitrile, methanol, wate r s o l u lon (2:1:1) containing […] internal standard terfenadine and 0.05% v/v acelc acid. The samples were centrifuged at 4000 rpm for 10 min and the supernatant was analyzed using a 1100 HPLC and Single Quad 6120 (Agilent, USA). Compounds were tested in duplic ate, and an exponenlal decay curve ﬁt was used on the ralo of peak area of test compound to internal standard at each lme point to calculate the rate constant (k). The rate of intrinsic clearance (CLint) of each test compound was then calculated using the following equalon: CLint (mL/min/mg) = k x V where V was mL/mg protein. Verapamil (6 μM) was used as a posilve control. Incubalon of each compound with microsomes in the absence of NADPH and analyzed at 0 and 60 min was used as the negalve control.
# (§3) The human biological samples were sourced ethically, and their research use was in accord with the terms of the informed consents.
# [11] = Microsomal stability, human liver microsomes (HLM); assay type: in vitro ADME; conditions: both sexes, pH 7.4; for half-life at 6 μM: human liver microsomes, read-out: HLM t1/2
# Protocol: as §1, §2, §3
# [12] = system: Mycobacterium abscessus 103R; experiment: Antimicrobial spectrum MIC, M. abscessus; assay type: cell-based
# [13] = system: Mycobacterium avium 2285R (rough); experiment: Antimicrobial spectrum MIC, M. avium rough; assay type: cell-based
# Escherichia coli RFM 795 = experiment: Antimicrobial spectrum MIC, E. coli; assay type: cell-based; conditions: Escherichia coli RFM 795 (lptD mutation)
# [14] = system: Mycobacterium smegmatis mc2155; assay type: cell-based
# [15] = system: Staphylococcus aureus (ATCC 29213); experiment: Antimicrobial spectrum MIC, S. aureus; assay type: cell-based
# [16] = system: H37Rv-LP (ATCC 25618) inside THP-1 cells; experiment: microbe, parasite or virus in culture; assay type: cell-based; conditions: Mycobacterium tuberculosis, 72 hours; for IC50: growth of H37Rv-LP inside THP-1 cells inhibited by 50%, read-out: Intracellular IC50; for IC90: growth of H37Rv-LP inside THP-1 cells inhibited by 90%, read-out: Intracellular IC90
# [17] = system: Mycobacterium avium 2285S (smooth); experiment: Antimicrobial spectrum MIC, M. avium smooth; assay type: cell-based
# [18] = system: M. tuberculosis H37Rv-LP (ATCC 25618); experiment: ATP depletion assay (BacTiter-Glo); assay type: cell-based, Mycobacterium tuberculosis; conditions: compared to the positive control Q203
# [19] = Mycobacterium tuberculosis, 120 h
Compound,CC50 at 72 h (in vitro [3]; CC50 HepG2+Gal) [µM],CC50 at 72 h (in vitro [3]; CC50 HepG2+Glu) [µM],"MIC [4, 19] [µM]",MIC [5] [µM],CC50 at 72 h (in vitro [8]) [µM],CC50 at 72 h (in vitro [9]) [µM],other results
FC(F)(F)c1ccc(CCNc2cc(-c3ccccn3)nc3ncnn23)cc1 [1 (TAP)],,,,,,,MIC H37Rv-LP (M. tuberculosis H37Rv-LP): 1.4 µM
CCc1nc2ccc(C)cc2n1CCCNc1ccccc1 [2 (FABA)],,,,,,,MIC H37Rv-LP (M. tuberculosis H37Rv-LP): 0.056 µM
CCc1nc(NCCCc2ccccc2)c2cc(C)sc2n1 [3 (CWHM-1023)],,,,,,,IC50 [1]: 0.042 µM; IC50 [2]: 0.025 µM
Cc1nc(NCCc2ccccc2)c2cc(I)ccc2n1 [9d],5.1,10.9,0.95,3.2,,,CC50 at 72 h (in vitro [6]): 11.7 µM; CC50 at 72 h (in vitro [7]): 11.7 µM
Cc1nc(NCCc2ccc(OC(F)(F)F)cc2)c2cc(Br)ccc2n1 [13c],1,1.5,3.4,5.9,< 1,< 1,
Cc1nc(NCCc2ccc(OC(F)(F)F)cc2)c2cc(I)ccc2n1 [13d],2.2,3.4,3.7,5.3,7.3,7.4,
Cc1ccc(CCNc2nc(C)nc3ccc(I)cc23)cc1 [15d],6.6,11.4,0.48,3.1,10.6,10.2,
CCc1ccc(CCNc2nc(C)nc3ccc(I)cc23)cc1 [16d],5.3,7.4,1.9,6,8.3,8.3,
Cc1nc(NCCc2ccc3ccccc3c2)c2cc(Br)ccc2n1 [17c],1.8,4.6,2.5,3.2,< 1,< 1,
Cc1nc(NCCCc2ccccc2)c2ccccc2n1 [18a],2.6,7.7,1.6,4.5,,,MIC [4]: 1.6 µM
COc1ccc2nc(C)nc(NCCCc3ccccc3)c2c1 [18b],11,13.9,1.5,4.1,17,> 20,"microsomal CLint at 6 μM ([10]; mouse, microsomes): 530 µL/min/mg; remaining at 10 min, 6 μM ([10]; mouse, microsomes): 7%; half-life at 6 μM [10]: 2.6 min; microsomal CLint at 6 μM ([11]; human, microsomes): 252 µL/min/mg; remaining at 20 min, 6 μM ([11]; human, microsomes): 8%; half-life at 6 μM [11]: 5.5 min; CIM 103R [12]: > 100 µM; CIM 2285R [13]: > 100 µM; CIM RFM 795 (Escherichia coli RFM 795): 54 µM; CIM mc2155 [14]: > 32.5 µM; CIM 29213 [15]: > 100 µM; IC50 [16]: 0.84 µM; IC90 [16]: 1.9 µM; CIM 2285S [17]: > 100 µM"
Cc1nc(NCCCc2ccccc2)c2cc(Br)ccc2n1 [18c],9.7,19.1,0.28,0.45,13.2,13.8,"microsomal CLint at 6 μM ([10]; mouse, microsomes): 354 µL/min/mg; remaining at 20 min, 6 μM ([10]; mouse, microsomes): 2%; half-life at 6 μM [10]: 3.9 min; microsomal CLint at 6 μM ([11]; human, microsomes): 184 µL/min/mg; remaining at 0.5 h, 6 μM ([11]; human, microsomes): 6%; half-life at 6 μM [11]: 7.5 min; ATP depletion profile [18]: none of the selected molecules produced a significant ATP depletion profile; CIM 103R [12]: > 100 µM; CIM 2285R [13]: > 100 µM; CIM RFM 795 (Escherichia coli RFM 795): > 100 µM; CIM mc2155 [14]: > 56.1 µM; CIM 29213 [15]: > 100 µM; IC50 [16]: 0.16 µM; IC90 [16]: 0.45 µM; CIM 2285S [17]: > 100 µM"
Cc1nc(NCCCc2ccccc2)c2cc(I)ccc2n1 [18d],13,20.3,0.58,1.6,18.3,> 20,"microsomal CLint at 6 μM ([10]; mouse, microsomes): 202 µL/min/mg; remaining at 5 min, 6 μM ([10]; mouse, microsomes): 63%; half-life at 6 μM [10]: 6.9 min; microsomal CLint at 6 μM ([11]; human, microsomes): 243 µL/min/mg; remaining at 20 min, 6 μM ([11]; human, microsomes): 9%; half-life at 6 μM [11]: 5.7 min; CIM 103R [12]: > 100 µM; CIM 2285R [13]: > 100 µM; CIM RFM 795 (Escherichia coli RFM 795): > 100 µM; CIM mc2155 [14]: > 12.4 µM; CIM 29213 [15]: > 100 µM; IC50 [16]: 0.47 µM; IC90 [16]: 1.2 µM; CIM 2285S [17]: > 100 µM"
c1ccc(CCCNc2ncnc3ccccc23)cc1 [18e],2.5,10.9,24,19,< 1,< 1,
"CO[C@H]1/C=C/O[C@@]2(C)Oc3c(C)c(O)c4c(O)c(c(/C=N/N5CCN(C)CC5)c(O)c4c3C2=O)NC(=O)/C(C)=C\C=C\[C@H](C)[C@H](O)[C@@H](C)[C@@H](O)[C@@H](C)[C@H](OC(C)=O)[C@@H]1C [20 (RIF), rifampicin, reference compound]",,,0.03,,,,CIM mc2155 [14]: 48.6 µM
"CC[C@H]1OC(=O)[C@H](C)[C@@H](O[C@H]2C[C@@](C)(OC)[C@@H](O)[C@H](C)O2)[C@H](C)[C@@H](O[C@@H]2O[C@H](C)C[C@H](N(C)C)[C@H]2O)[C@](C)(OC)C[C@@H](C)C(=O)[C@H](C)[C@@H](O)[C@]1(C)O [25 (CLA), Clarithromycin, reference compound]",,,,,,,CIM 103R [12]: 0.5 µM; CIM 2285R [13]: 1.4 µM; CIM 2285S [17]: 0.4 µM
"CN[C@H](CC(C)C)C(=O)N[C@H]1C(=O)N[C@@H](CC(N)=O)C(=O)N[C@H]2C(=O)N[C@H]3C(=O)N[C@H](C(=O)N[C@H](C(=O)O)c4cc(O)cc(O)c4-c4cc3ccc4O)[C@H](O)c3ccc(c(Cl)c3)Oc3cc2cc(c3O[C@@H]2O[C@H](CO)[C@@H](O)[C@H](O)[C@H]2O[C@H]2C[C@](C)(N)[C@H](O)[C@H](C)O2)Oc2ccc(cc2Cl)[C@H]1O [26 (VAN), Vancomycin, reference compound]",,,,,,,CIM 29213 [15]: 2.9 µM
"CC1(C)S[C@@H]2[C@H](NC(=O)[C@H](N)c3ccccc3)C(=O)N2[C@H]1C(=O)O [27 (AMP), Ampicillin, reference compound]",,,,,,,CIM RFM 795 (Escherichia coli RFM 795): 12.0 µM
